The structures appear in SMILES notation.

This is an account of results in US7745646B2, “Bicyclic heteroaryl inhibitors of PDE4” (Kalypsys, Inc., priority 2006, dated 2010).

In this assay the target is T1, PDE4B (Homo sapiens, UniProt Q07343).
T1 construct: hex-histidine (His6) (N); made in house
T1 sequence (Q07343 330-659 limits assumed, species assumed): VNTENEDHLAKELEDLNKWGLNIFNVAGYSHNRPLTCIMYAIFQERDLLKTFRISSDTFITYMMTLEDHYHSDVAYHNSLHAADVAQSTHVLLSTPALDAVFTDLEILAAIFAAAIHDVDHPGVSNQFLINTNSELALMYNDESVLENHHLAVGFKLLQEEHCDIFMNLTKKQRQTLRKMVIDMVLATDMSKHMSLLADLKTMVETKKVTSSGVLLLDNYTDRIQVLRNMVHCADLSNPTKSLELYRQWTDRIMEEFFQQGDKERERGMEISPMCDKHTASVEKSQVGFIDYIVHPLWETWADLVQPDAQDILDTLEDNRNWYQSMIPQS
The assay is described as follows: Novel coupled PDE/AK bioluminescent assay, PDE4B inhibition. Format: biochemical. The conditions noted are these: PDE4B catalytic domain.
Description: We developed a novel coupled PDE/AK bioluminescent high-throughput assay to measure the activity of phosphodiesterases. In the PDE/AK assay, the AMP produced from the hydrolysis of cAMP by phosphodiesterase is converted to adenosine diphosphate (ADP) by the phosphotransferase activity of adenylate kinase (also known as ADK or myokinase). Adenylate kinase will catalyze the conversion of 1 mole of AMP and 1 mole of ATP into 2 moles of ADP. Thus the conversion of AMP to ADP will result in the subsequent loss of ATP. The decrease in ATP concentration can be monitored as light output using luciferase in a reaction that requires ATP to produce light. The PDE/AK assay uses luciferase, which catalyzes the production of light from ATP present in the reaction mix. The amount of emitted light is inversely proportional to the level of AMP present in the reaction. Test compounds are incubated with the phosphodiesterases and phosphodiesterase inhibitors will decrease the rate of cAMP hydrolysis and decrease the subsequent production of AMP.
A novel coupled PDE/AK assay was utilized to measure the inhibitory activity of compounds on PDE isoforms. The catalytic domain of PDE4B was fused to an amino-terminus hex-histidine affinity tag and purified. PDE4B enzyme was incubated with compounds for 10 minutes. Cyclic AMP substrate, ATP and adenylate kinase were then added to the PDE enzyme mix and incubated for 45 minutes at room temperature. A commercial ATP detection assay, Perkin Elmer's easyLite ATP detection reagent, was then added to measure the relative amount of ATP present in the reaction. After 10 minute incubation, the luminescent signal was quantitated with either the Perkin Elmer Viewlux or Molecular Devices Acquest or Analyst.
For `COc1ccc2c(Nc3c(Cl)cncc3Cl)cc(=O)oc2c1O[C@@H]1O[C@H](COC(C)=O)[C@@H](OC(C)=O)[C@H](OC(C)=O)[C@H]1OC(C)=O` [Example 60, (2R,3R,4S,5R,6S)-2-(Acetoxymethyl)-6-(4-(3,5-dichloropyridin-4-ylamino)-7-methoxy-2-oxo-2H-chromen-8-yloxy)tetrahydro-2H-pyran-3,4,5-triyl triacetate], the IC50 was below 1000 nM.

`COc1ccc2c(Nc3c(Cl)cncc3Cl)cc(=O)oc2c1OCCCCCCCC(=O)O` [Example 66, 8-(4-(3,5-Dichloropyridin-4-ylamino)-7-methoxy-2-oxo-2H-chromen-8-yloxy)octanoic acid] gave an IC50 below 1000 nM. The compound `COc1ccc2c(Nc3c(Cl)cncc3Cl)cc(=O)oc2c1OC/C=C\CO` [Example 76, (Z)-4-(3,5-Dichloropyridin-4-ylamino)-8-(4-hydroxybut-2-enyloxy)-7-methoxy-2H-chromen-2-one] came in with an IC50 below 1000 nM. The compound `COc1ccc2c(Nc3c(Cl)cncc3Cl)cc(=O)oc2c1OCCCCO` [Example 73, 4-(3,5-Dichloropyridin-4-ylamino)-8-(4-hydroxybutoxy)-7-methoxy-2H-chromen-2-one] displayed an IC50 below 1000 nM. `COc1ccc2c(Nc3c(Cl)cncc3Cl)cc(=O)oc2c1OCCCCCN1CCN(C)CC1` [Example 52, 4-(3,5-Dichloropyridin-4-ylamino)-7-methoxy-8-(5-(4-methylpiperazin-1-yl)pentyloxy)-2H-chromen-2-one] came in with an IC50 below 1000 nM. The compound `COc1ccc2c(Nc3c(Cl)cccc3Cl)cc(=O)oc2c1OC1CCCC1` [Example 1, 8-(Cyclopentyloxy)-4-(2,6-dichlorophenylamino)-7-methoxy-2H-chromen-2-one] displayed an IC50 below 1000 nM.

Compound `CCOC(=O)CCCOc1c(OC)ccc2c(Nc3c(Cl)cncc3Cl)cc(=O)oc12` [Example 36, Ethyl 4-(4-(3,5-dichloropyridin-4-ylamino)-7-methoxy-2-oxo-2H-chromen-8-yloxy)butanoate] registered an IC50 below 1000 nM. For `COc1ccc2c(Nc3c(Cl)cncc3Cl)cc(=O)oc2c1OCCc1ccccc1` [Example 41, 4-(3,5-Dichloropyridin-4-ylamino)-7-methoxy-8-phenethoxy-2H-chromen-2-one], the IC50 is below 1000 nM. `COc1ccc2c(Nc3c(Cl)cncc3Cl)cc(=O)oc2c1OCc1ccccc1[N+](=O)[O-]` [Example 33, 4-(3,5-Dichloropyridin-4-ylamino)-7-methoxy-8-(2-nitrobenzyloxy)-2H-chromen-2-one] showed an IC50 below 1000 nM. For `COc1ccc2c(Nc3c(Cl)cncc3Cl)cc(=O)oc2c1OCCCCCN1CCCCC1` [Example 54, 4-(3,5-Dichloropyridin-4-ylamino)-7-methoxy-8-(5-(piperidin-1-yl)pentyloxy)-2H-chromen-2-one], the IC50 is below 1000 nM. As to `COc1ccc2c(Nc3c(Cl)cncc3Cl)cc(=O)oc2c1OCCCc1ccccc1` [Example 48, 4-(3,5-Dichloropyridin-4-ylamino)-7-methoxy-8-(3-phenylpropoxy)-2H-chromen-2-one], the IC50 was below 1000 nM.

As for `COc1ccc2c(Nc3c(Cl)cncc3Cl)cc(=O)oc2c1OCCCCCNC(=N)N` [Example 83, 1-(5-(4-(3,5-Dichloropyridin-4-ylamino)-7-methoxy-2-oxo-2H-chromen-8-yloxy)pentyl)guanidine], the IC50 is below 1000 nM.

As for `CCOC(=O)COc1c(OC)ccc2c(Nc3c(Cl)cncc3Cl)cc(=O)oc12` [Example 46, Ethyl 2-(4-(3,5-dichloropyridin-4-ylamino)-7-methoxy-2-oxo-2H-chromen-8-yloxy)acetate], the IC50 was below 1000 nM.

On to `COc1ccc2c(NCC(=O)O)cc(=O)oc2c1OC1CCCC1` [Example 7, 2-(8-(Cyclopentyloxy)-7-methoxy-2-oxo-2H-chromen-4-ylamino)acetic acid], for which the IC50 is above 1000 nM. With `COC(=O)c1cccc(Cl)c1Nc1cc(=O)oc2c(OC3CCCC3)c(OC)ccc12` [Example 20, Methyl 3-chloro-2-(8-(cyclopentyloxy)-7-methoxy-2-oxo-2H-chromen-4-ylamino)benzoate] the figure was above 1000 nM. With `COc1ccc2c(Nc3c(Cl)cncc3Cl)cc(=O)oc2c1OCc1cccc([N+](=O)[O-])c1` [Example 34, 4-(3,5-Dichloropyridin-4-ylamino)-7-methoxy-8-(3-nitrobenzyloxy)-2H-chromen-2-one] the figure was below 1000 nM. With `COc1ccc2c(Nc3c(Cl)cncc3Cl)cc(=O)oc2c1OCCCCCN1CCCC1` [Example 55, 4-(3,5-Dichloropyridin-4-ylamino)-7-methoxy-8-(5-(pyrrolidin-1-yl)pentyloxy)-2H-chromen-2-one] the figure was below 1000 nM; with `COc1ccc2c(Nc3c(Cl)cncc3Cl)cc(=O)oc2c1OCCC1CCCCC1` [Example 47, 8-(2-Cyclohexylethoxy)-4-(3,5-dichloropyridin-4-ylamino)-7-methoxy-2H-chromen-2-one], below 1000 nM; with `COc1ccc2c(Nc3c(Cl)cncc3Cl)cc(=O)oc2c1OCC(N)=O` [Example 56, 2-(4-(3,5-Dichloropyridin-4-ylamino)-7-methoxy-2-oxo-2H-chromen-8-yloxy)acetamide], below 1000 nM.

For `COc1ccc2c(Nc3c(Cl)cncc3Cl)cc(=O)oc2c1OC[C@@H]1OC(=O)[C@@H](O)[C@H]1O` [Example 51, 4-(3,5-Dichloropyridin-4-ylamino)-8-(((2S,3R,4S)-3,4-dihydroxy-5-oxotetrahydrofuran-2-yl)methoxy)-7-methoxy-2H-chromen-2-one], the IC50 was below 1000 nM.

`COc1ccc2c(Nc3c(Cl)cncc3Cl)c(F)c(=O)oc2c1OC1CCCC1` [Example 14, 8-(Cyclopentyloxy)-4-(3,5-dichloropyridin-4-ylamino)-3-fluoro-7-methoxy-2H-chromen-2-one] returned an IC50 below 1000 nM. With `COc1ccc2c(Nc3c(Cl)cncc3Cl)cc(=O)oc2c1OCCCBr` [Example 30, 8-(3-Bromopropoxy)-4-(3,5-dichloropyridin-4-ylamino)-7-methoxy-2H-chromen-2-one] the figure was below 1000 nM; with `COc1ccc2c(Nc3c(Cl)cncc3Cl)cc(=O)oc2c1OCCCCN1CCN(C)CC1` [Example 70, 4-(3,5-Dichloropyridin-4-ylamino)-7-methoxy-8-(4-(4-methylpiperazin-1-yl)butoxy)-2H-chromen-2-one], below 1000 nM; with `COc1ccc2c(Nc3c(Cl)cncc3Cl)cc(=O)oc2c1OCCCCCN(C)CCCN(C)C` [Example 92, 4-(3,5-Dichloropyridin-4-ylamino)-8-(5-((3-(dimethylamino)propyl)(methyl)amino)pentyloxy)-7-methoxy-2H-chromen-2-one], below 1000 nM.

For `COc1ccc2c(Nc3c(C)cncc3C)cc(=O)oc2c1OC1CCCC1` [Example 12, 8-(Cyclopentyloxy)-4-(3,5-dimethylpyridin-4-ylamino)-7-methoxy-2H-chromen-2-one], the concentration for half-maximal inhibition (IC50) is below 1000 nM. On to `COc1ccc2c(Nc3c(Cl)cncc3Cl)cc(=O)oc2c1OCCCCCC#N` [Example 57, 6-(4-(3,5-Dichloropyridin-4-ylamino)-7-methoxy-2-oxo-2H-chromen-8-yloxy)hexanenitrile], for which the IC50 is below 1000 nM. In the case of `COc1ccc2c(Nc3c(Cl)cncc3Cl)cc(=O)oc2c1OCCCCCO` [Example 72, 4-(3,5-Dichloropyridin-4-ylamino)-8-(5-hydroxypentyloxy)-7-methoxy-2H-chromen-2-one], the IC50 was below 1000 nM.

The compound `COc1ccc2c(Nc3c(Cl)cccc3C(F)(F)F)cc(=O)oc2c1OC1CCCC1` [Example 17, 4-(2-Chloro-6-(trifluoromethyl)phenylamino)-8-(cyclopentyloxy)-7-methoxy-2H-chromen-2-one] showed an IC50 below 1000 nM.

Turning to `COc1ccc2c(Nc3c(Cl)cncc3Cl)cc(=O)oc2c1O` [Example 29, 4-(3,5-Dichloropyridin-4-ylamino)-8-hydroxy-7-methoxy-2H-chromen-2-one], the IC50 was below 1000 nM. `COc1ccc2c(Nc3c(Cl)cncc3Cl)cc(=O)oc2c1OCCCCCBr` [Example 28, 8-(5-Bromopentyloxy)-4-(3,5-dichloropyridin-4-ylamino)-7-methoxy-2H-chromen-2-one] displayed an IC50 below 1000 nM.

In turn, `COc1ccc2c(Nc3c(Cl)cncc3Cl)cc(=O)oc2c1OCCCCCC(=O)N[C@@H](C)C(=O)O` [Example 97, (S)-2-(6-(4-(3,5-Dichloropyridin-4-ylamino)-7-methoxy-2-oxo-2H-chromen-8-yloxy)hexanamido)propanoic acid] showed an IC50 below 1000 nM.

As for `COc1ccc2c(Nc3c(Cl)cncc3Cl)cc(=O)oc2c1OCCCCCC(=O)O` [Example 44, 6-(4-(3,5-Dichloropyridin-4-ylamino)-7-methoxy-2-oxo-2H-chromen-8-yloxy)hexanoic acid], the IC50 is below 1000 nM. In the case of `COc1ccc2c(Nc3c(Cl)cncc3Cl)cc(=O)oc2c1OCCCCCN(C)C` [Example 31, 4-(3,5-Dichloropyridin-4-ylamino)-8-(5-(dimethylamino)pentyloxy)-7-methoxy-2H-chromen-2-one], the IC50 was below 1000 nM. `CCc1c(Nc2c(Cl)cncc2Cl)c2ccc(OC)c(OCC3CC3)c2oc1=O` [Example 6, 8-(Cyclopropylmethoxy)-4-(3,5-dichloropyridin-4-ylamino)-3-ethyl-7-methoxy-2H-chromen-2-one] gave an IC50 below 1000 nM. In turn, `COc1ccc2c(Nc3c(Cl)cncc3Cl)cc(=O)oc2c1OCCCCCc1nn[nH]n1` [Example 63, 8-(5-(2H-Tetrazol-5-yl)pentyloxy)-4-(3,5-dichloropyridin-4-ylamino)-7-methoxy-2H-chromen-2-one] displayed an IC50 below 1000 nM.

Consider `COc1ccc2c(Nc3c(Cl)cncc3Cl)cc(=O)oc2c1OCCCCCC(N)=O` [Example 78, 6-(4-(3,5-Dichloropyridin-4-ylamino)-7-methoxy-2-oxo-2H-chromen-8-yloxy)hexanamide], for which the IC50 was below 1000 nM. `CCOC(=O)CNC(=O)CCCCCOc1c(OC)ccc2c(Nc3c(Cl)cncc3Cl)cc(=O)oc12` [Example 94, Ethyl 2-(6-(4-(3,5-dichloropyridin-4-ylamino)-7-methoxy-2-oxo-2H-chromen-8-yloxy)hexanamido)acetate]: the IC50 is below 1000 nM.

One may read the IC50 as the concentration needed to halve the response being measured. Low readings indicate greater potency, high ones weaker potency.
